From publication PMC5651866, “Halogenated Chrysins Inhibit Dengue and Zika Virus Infectivity” (Scientific Reports, 2017)

Assays:
[1] = system: DENV2 infected C6/36 cells; assay: Fusion inhibition study in DENV2 infected C6/36 cells; type: cell-based, Dengue virus; conditions: 10 and 25 µM; M.O.I. of 0.02; in words
Procedure: We further explored whether the compound would block the viral infectivity by neutralization. We set up the attachment inhibition assay by incubating DENV2 with LLC/MK2 cells at 4 °C for 1 h and FV13 was added before adsorption (pre-attachment), simultaneous with adsorption (co-attachment), and after adsorption (post-attachment) (Fig. 5A). DMSO was used as a mock treatment and added in parallel to FV13 to the experiment. Cells were incubated until cytopathic effects appeared under microscope (Fig. 5B). Supernatants and cells were then analyzed by plaque titration (Fig. 5C) and RT-qPCR (Fig. 5D), respectively. […] Therefore, the major targets of FV13 inhibition appear to function after attachment, possibly at the fusion or translation steps. […] (Supplementary 1). Therefore, fusion was unlikely the major target of FV13. We concluded that one of the major targets of FV13 functions early after infection and attachment and fusion are not critically affected. Flavivirus translation initiates within 1 to 5 hpi[26].
The assay protocol was adapted from Ichiyama et al., 2013 and Poh et al., 20091,2. C6/36 cells were seeded at 2x10^5 cells per well in 24-well plate and incubated overnight. Cells were infected with DENV2 (M.O.I. of 0.02) at 28 °C for 1 h with gentle rocking every 15 min. […] The cells were closely monitored under microscope. […]

DENV2 = assay: Time-of-drug addition study (TOA) in DENV2 infected LLC/MK2 cells; type: cell-based, Dengue virus; conditions: 10 μM; for decrease of DENV2 plaque titer from DMSO-treated baseline: supernatants
Procedure: To access the stage of the viral life cycle affected by FV13, we performed a time-of-addition assay. Briefly, FV13 (10 μM) was added to DENV2 infected LLC/MK2 cells at various time points as described in Methods section. DMSO was added in parallel as a control treatment. Supernatants were collected for plaque titration and cell lysates were collected for RT-qPCR analysis. […] If the drug was added at 12 hpi or later, only 1-log decrease was observed (Fig. 4A,B). […] The first molecular target could interact with FV13 earlier than 2 hpi and its effect was still visible until 8–10 hpi. The other target could locate at late post-replication steps such as assembly, maturation, or release because a 1-log discrepancy between plaque and RT-qPCR titers indicated genome replication was unaffected. Further investigations will reveal insights into the actual target of this compound.
After supernatant collection, the remaining cells in experimental plates were extracted for viral RNAs using TRIzol reagent (Invitrogen, California, USA) according to the manufacturer’s protocol. The samples were loaded into the Direct-zol™ RNA MiniPrep (Zymo research, California, USA) and quantified by Nanodrop spectrophotometry (Eppendorf, New York, USA). The RT-qPCR was performed with a Step-OnePlus Real-Time PCR System (Applied Biosystems, California, USA.) with 1 × Power SYBRGreen PCR Master Mix, 400 nM each of capsid primers[40] or 250 nM of NS1 primers[41] and 0.1 µg of total RNA. The reactions were then cycled at 48 °C 30 min and 95 °C 10 min, followed by 45 cycles of 95 °C for 20 s (denaturation), 55 °C for 30 s (annealing), 72 °C for 30 s (extension). Each sample was analyzed in triplicated and results were confirmed by two independent experiments.
LLC/MK2 cells were seeded in 24-well plate and incubated as previously described. Cells were then infected with DENV2 (M.O.I. of 0.1). FV13 (10 µM) was added at various time points, early time points (−1, 0, 2, 4, 6, 8, 10, and 12 hpi) and late time points (12, 14, 16, 20, and 24 hpi) and the plates were incubated for 5 days. Supernatants were collected to determine the viral titer by plaque titration assay and the cells were collected to determine viral RNA content by RT-qPCR. Results were confirmed by three independent experiments in which each time point was tested in duplicate.

[2] = Stability of compound in DMSO at room temperature by 1H-NMR; type: physicochemical; conditions: 4 mM in DMSO, sampled at 24, 72, 120 h
Procedure: The FV13 (6,8-dibromo-5,7-dihydroxyflavone) was tested for the stability by dissolving in DMSO at a concentration of 4 mM FV13 solution. The solution was incubated at room temperature and sampled out at 24, 72, and 120 hours for ^1H-NMR analysis.

DENV1 (16007) = assay: Antiviral efficacy (EC50) in virus infected LLC/MK2 cells, plaque assay; type: cell-based, Dengue virus
Procedure: Compound at various concentrations were added to virus infected LLC/MK2 cells and viral titers were accessed by plaque titration of supernatants as previously described.
LLC/MK2 cells were seeded at 5 × 10^4 cells into each well of 24-well plate and incubated overnight at 37 °C under 5% CO2. Cells were infected with DENV2 at the multiplicity of infection (M.O.I.) of 0.1, unless indicated otherwise, for 1 h with gentle rocking every 15 min. Cells were washed with phosphate buffer saline (PBS) and incubated with 1 ml of MEM medium supplemented with 1% FBS as previously described. The compounds were prepared in dimethylsulfoxide (DMSO) at the indicated concentrations before addition to viral infected cells. Supernatants were collected after 5 day incubation and analyzed by plaque titration[9].
Compounds were prepared in DMSO at 8–12 different concentrations and added to virus infected cells as previously described. Supernatants were collected and the EC50 values were calculated from nonlinear regression analysis.

O=c1cc(-c2ccccc2)oc2c(Br)c(O)c(Br)c(O)c12 [FV13, 6,8-dibromo-5,7-dihydroxyflavone]
fusion inhibition (number of fused cells or syncytial phenomenon) [1]: no difference in the number of fused cells or syncytial phenomenon | decrease of DENV2 plaque titer from DMSO-treated baseline (DENV2; drug added at 12 hpi or later): 1 log | decrease of DENV2 plaque titer from DMSO-treated baseline (DENV2; drug added between 2–10 hpi): 2 log | intracellular viral RNA versus DMSO-treated samples (DENV2; drug addition at 12–24 hpi, RT-qPCR, in words): no titer difference | decrease of intracellular viral RNA (DENV2; drug addition between 2–8 hpi, RT-qPCR): 1 log | stability (no decomposition by NMR) [2]: at least 120 h | S.I. Selectivity index (CC50/EC50) (DENV1 (16007); DENV1 (16007), CC50 in LLC/MK2): 19.42 | EC50 (DENV1 (16007); Dengue virus, DENV1, LLC-MK2): 2.3 ± 1.04 µM
